Experimental data from US9072729B2, “Method for treating fibrosis and cancer with imidazolium and imidazolinium compounds” (Agency for Science, Technology and Research, priority 2008, dated 2015).
Like-named read-outs stand apart in the source and are kept apart here.

Experiments:
Assay type in all cases: cell-based, rat
[1] = test system: HSC T6 cells; assay: MTS based proliferation assay (cytotoxicity) on cultured HSC-T6 cells; details: read-out: IC50 (toxicity on T6 cells)
Protocol: FIG. 1. Cytotoxicity of (a) DBZIM and (b) TDBZIM. […] The signal was normalized against a vehicle control treatment (0 μM of compound). The data were obtained from four independent experiments, and presented as mean and standard error or mean (SEM), *^aP<0.05, *^bP<0.01 and *^cP<0.005.
Firstly we assessed the cytotoxicity of DBZIM and TDBZIM on cultured HSC-T6 cells using a 3-(4,5-dimethylthiazol-2-yl)-5-(3-carboxymethoxyphenyl)-2-(4-sulfophenyl)-2H-tetrazolium (MTS) based proliferation assay kit (Promega, Wis., USA). […]

[2] = test system: GFAP; assay: Real-time RT-PCR of GFAP mRNA in HSC T6 cells; details: 48 h; DPIM 2 mM, AMIM 50 μM, TMPHIM 50 μM, DBZBIM 100 μM
Protocol: (§1) FIG. 6. (a) DBZIM and (b) TDBZIM suppressed the mRNA expression of HSC activation markers (GFAP and SMAA) and fibrotic endpoints (col1a1 and fibronectin) in a dosage-dependent manner. […] The ΔΔCt method was used for relative quantification with vehicle control sample being the calibrator. The data were presented as mean and SEM, N=6, *^aP<0.05, *^bP<0.01, *^cP<0.005, and *^dP<0.0005, when compared to the vehicle control. FIG. 7. DBZIM (100 μM) and TDBZIM (100 μM) suppressed (a) GFAP, (b) SMAA, (c) col1a1 and (d) fibronectin mRNA expression in a time-dependent manner. HSC T6 cells were treated with DBZIM and TDBZIM, and assayed after 8, 24 and 48 h. […] FIG. 14. […] (50 μM), […] (50 μM), […] (10 μM) and DBZBIM (100 μM) were dissolved in DMSO with a final DMSO concentration of 0.2% (v/v). DPIM (2 mM), EGCG (25 μM) and DBZIM (100 μM) were dissolved in H2O. β-actin was used as the normalization gene; its expression was constant under the experimental conditions. Relative quantification was normalized against the respective vehicle control. The data were presented as mean and SEM, N=6, *^aP<0.05, *^cP<0.005, and *^dP<0.0005, when compared to the vehicle control. Total RNA was isolated using NucleoSpin RNAII isolation kit ([…], Germany), and quantified by ND-100 spectrophotometer (Nanodrop Technologies, DE, USA). The details of real-time RT-PCR were reported elsewhere (Zhang et al. 2006). Briefly, it was a two-step real-time RT-PCR using Taqman chemistry. Total RNA was first reverse transcribed to cDNA, and real-time PCR was run and detected in ABI 7500 Fast Real-Time PCR System (Applied Biosystems, CA, USA). Primers and probes for rat GFAP, SMAA, collagen Ia1, fibronectin, TGF-β1, TGF-β receptor I (TGFβ RI) and IL-6 were ordered from Taqman's assay-on-demand database. Rat β-actin was used as normalization gene, and its expression level was constant (CT difference was <±0.5) throughout the experimental settings in this study. Relative quantification of target mRNA was calculated using comparative threshold cycle method (ΔΔCT) as described in User Bulletin #2 (ABI Prism 7700 Sequence Detection System). Relative quantification was given by 2^-ΔΔCT to express the up-regulation or down regulation of the target gene under the treatments compared to the control.

[3] = test system: SMAA; assay: Real-time RT-PCR of SMAA mRNA in HSC T6 cells; details: 48 h; DBIM 1 mM, DPIM 2 mM, AMIM 50 μM, TMPHIM 50 μM
Protocol: as §1

[4] = test system: col1a1; assay: Real-time RT-PCR of col1a1 mRNA in HSC T6 cells; details: 48 h; DBIM 1 mM, DPIM 2 mM, TMPHIM 50 μM, DPPHIM 10 μM
Protocol: as §1

[5] = test system: fibronectin; assay: Real-time RT-PCR of fibronectin mRNA in HSC T6 cells; details: 48 h; DPIM 2 mM, TMPHIM 50 μM, DBZIM 100 μM
Protocol: as §1

[6] = test system: HSC-T6 cells; assay: Glutathione (GSH) and GSSG assays
Protocol: FIG. 3. […] (c) DBZIM and (d) TDBZIM both suppressed cellular GSSG (the oxidation product of GSH). (e) DBZIM and (f) TDBZIM both enhanced the GSH/GSSG ratio. HSC-T6 cells were incubated with compounds of various concentrations for 48 h, and assayed for the total GSH and GSSG amounts. The GSH/GSSG ratio was calculated as (GSH−GSSG)/GSSG. The GSH and GSSG amounts were normalized against the total protein. Note that DBZIM was dissolved in DMSO, and TDBZIM was dissolved in H2O. The data were presented as mean and SEM, N=6, *^aP<0.05, *^bP<0.01, *^cP<0.005, and *^dP<0.0005, when compared to the vehicle control.
Total cellular GSH and GSSG levels were determined by using assay kits from Cayman Chemical (Ann Arbor, Mich., USA) following the manufacturer's instructions. Briefly, HSC-T6 cells treated with DBZIM, TDBZIM, NAC, or EGCG were scalped and homogenized in phosphate buffered saline (PBS) by sonication at 60% frequency for 30 s, and the supernatant was collected after centrifugation at 16,000×g for 10 min at 4° C. Protein content of the samples was determined by bicinchonicic acid (BCA) assay.
For GSH assays, the protein sample was deproteinated by metaphosphoric acid (Aldrich, Catalog No. 23927-5), and the pH was adjusted by triethanolamine (Aldrich, Catalog No. T5830-0) according to the manual. The sample was ready for assaying total GSH including both the reduced and oxidized forms. Quantification of GSSG, exclusive of GSH, was performed by first derivatizing GSH with 2-vinylpyridine and assaying separately. Colorimetric signal was recorded at 405 nm with a Tecan Safire II plate reader. The levels of GSH or GSSG were determined as nmol/μg protein.

[7] = test system: GPx; assay: Glutathione peroxidase (GPx) activity assay in treated cells
Protocol: (§2) FIG. 4. Effect of DBZIM and TDBZIM on GPx, CAT, SOD and GST. DBZIM affected (a) GPx activity and (c) CAT activity in a dosage-dependent manner. TDBZIM suppressed (b) GPx activity and (d) CAT activity. (e) DBZIM and (f) TDBZIM had little effect on SOD activity. (g) DBZIM induced GST activity. HSC T6 cells were treated with compounds of various concentrations for 48 h, and homogenized by sonication (60% frequency for 30 s) in PBS (pH 7.4, 1 mM of EDTA) for GPx, GST and CAT assays, or in 20 mM of HEPES buffer containing 1 mM of EGTA, 210 mM of mannitol and 70 mM of sucrose (pH 7.2) for SOD assay. Enzyme activity was normalized against total protein. DBZIM was dissolved in DMSO, and TDBZIM was dissolved in H2O. The data were presented as mean and SEM, N=6, *^aP<0.05, *^bP<0.01, *^cP<0.005, and *^dP<0.0005, when compared to the vehicle control.
(§3) Activity levels of three anti-oxidant enzymes, GPx, CAT and SOD, were determined using assay kits from Cayman Chemical. To assay GPx and CAT activities, protein samples were harvested in ice-cold PBS containing 1 mM of EDTA. To assay SOD activity, protein samples were prepared in 20 mM of N-(2-hydroxyethyl)-piperazine-N′-2-ethanesulfonic acid (HEPES) buffer containing 1 mM of ethylene glycol-bis(2-aminoethylether)-N,N,N′,N′-tetraacetic acid (EGTA), 210 mM of mannitol and 70 mM of sucrose. Protein content was determined by BCA assay.
GPx activity was indirectly measured by a coupled reaction with GSH reductase. Oxidized GSH, produced upon reduction of H2O2 by GPx, is recycled to its reduced state by glutathione reductase (GR) and nicotinamide adenine dinucleotide phosphate (NADPH). The oxidation of NAPDH is proportional to the GPx activity, and can be measured as a decrease in absorbance at 340 nm. GPx activity was expressed as nmol/min/mg protein.

[8] = test system: CAT; assay: Catalase (CAT) activity assay in treated cells
Protocol: FIG. 4. […] Enzyme activity was normalized against total protein. DBZIM was dissolved in DMSO, and TDBZIM was dissolved in H2O. The data were presented as mean and SEM, N=6, *^aP<0.05, *^bP<0.01, *^cP<0.005, and *^dP<0.0005, when compared to the vehicle control.
Activity levels of three anti-oxidant enzymes, GPx, CAT and SOD, were determined using assay kits from Cayman Chemical. To assay GPx and CAT activities, protein samples were harvested in ice-cold PBS containing 1 mM of EDTA. […] Protein content was determined by BCA assay.
CAT activity was determined based on reaction of the enzyme with methanol in the presence of H2O2. The formaldehyde produced was measured spectrophotometrically at 540 nm using Purpald as the chromogen. CAT activity was expressed as nmol/min/mg protein.

[9] = test system: SOD; assay: Superoxide dismutase (SOD) activity assay in treated cells
Protocol: as §2, §3
Total SOD, including all three types of SOD (Cu/Zn-, Mn- and Fe-SOD), was quantified using a tetrazolium salt to detect superoxide radicals generated by xanthine oxidase and hyposanthine. […] SOD activity was expressed as U/mg protein.

[10] = test system: HSC-T6 cells; assay: Cellular ROS determination (DCF labeling); details: EGCG 25 μM, NAC 1 mM, 48 h
Protocol: FIG. 2. (a) DBZIM and (b) TDBZIM attenuated cellular ROS level. HSC T6 cells were incubated with DBZIM (10, 50, 100 and 300 μM), TDBZIM (10, 50 and 100 μM), NAC (1 mM) and EGCG (25 μM) for 48 h before assaying for cellular ROS levels. The data were presented as relative values after normalizing against a vehicle control. The data were presented as mean and SEM, N=6, *^bP<0.01, *^cP<0.005, and *^dP<0.0005 when compared to the vehicle, control.
The ROS level of treated HSC-T6 cells was determined using the dichlorofluorescein (DCF) labeling method (Molecular Probes Inc., OR, USA). Cultured cells were harvested by trypsinization, and resuspended in phenol red-free DMEM (Invitrogen). Cells were then incubated with 10 μg/ml of 2′,7′-dichloro-fluorescein diacetate (DCFH-DA) in DMEM for 15 min before resuspension in DMEM for assaying. Cell solution was dispensed into a black-wall 96-well pate in triplicate for fluorescence readout at Ex=485 nm and Em=530 nm with a Tecan Safire II plate reader. The fluorescence unit was normalized against viable cell numbers, which were determined using 3-(4,5-dimethylthiazol-2-yl)-2,5-diphenyl tetrazolium bromide (MTT assay, Promega, Wis., USA). Cellular ROS level was expressed relative to the control sample.

[11] = test system: GST; assay: Glutathione S-transferase (GST) assay in treated cells; details: EGCG, NAC
Protocol: as §2
The activity of phase II anti-oxidant enzyme, GST, was assayed using a kit from Cayman Chemical. Protein samples were harvested in PBS buffer containing 1 mM of EDTA, and the protein concentration was determined by BCA assay. Total GST (cytosolic and microsomal) activity was assayed by measuring the conjugation of 1-chloro-2,4-dinitobenzene (CDNB) with reduced GSH, and monitored by an increase in absorbance at 340 nm. GST activity was expressed as nmol/min/mg protein.

[12] = Rattus norvegicus, HSC-T6, HSC T6 cells

1,3-bis(2,4,6-trimethylphenyl)-imidazolinium chloride [TMPHIM]
IC50 ([1]; HSC T6 cells): 110 µM
suppression of GFAP mRNA [2]: 66%
suppression of SMAA mRNA [3]: 49%
suppression of col1a1 mRNA [4]: 62%
suppression of fibronectin mRNA [5]: 29%

1,3-bis(2,6-diisopropyl-phenyl)-imidazolinium chloride [DPPHIM]
IC50 ([1]; HSC T6 cells): 34 µM
suppression of col1a1 mRNA [4]: 47%

1,3-di-tert-butylimidazoliniumtetrafluoroborate [DBIM]
IC50 ([1]; HSC T6 cells): 2000 to 3000 µM
suppression of SMAA mRNA [3]: 49%
suppression of col1a1 mRNA [4]: 58%

F[B-](F)(F)F.c1c[n+](C23CC4CC(CC(C4)C2)C3)cn1C12CC3CC(CC(C3)C1)C2 [AMIM, 1,3-bis(1-adamantyl)imidazolium tetrafluoroborate]
IC50 [1, 12]: 166 µM
suppression of GFAP mRNA [2]: 69%
suppression of SMAA mRNA [3]: 23%

[Br-].c1ccc(Cn2c[n+](Cc3ccccc3)c3ccccc32)cc1 [DBZBIM, 1,3-bisbenzyl-benzimidazolium bromide]
IC50 [1, 12]: 310 µM
suppression of GFAP mRNA [2]: 50%

C[S+](C)[O-] [DMSO, dimethylsulfoxide]
GSH/GSSG ratio, of the control ([6]; 0.2% (v/v) DMSO vs untreated): 17%
GSSG amount, of the control ([6]; 0.2% (v/v) DMSO vs untreated): 4.4 fold
total cellular GSH level, of the control ([6]; 0.2% (v/v) DMSO vs untreated): 74%
GPx activity, of the control ([7]; 0.2% (v/v) DMSO vs untreated): 2.62 times
CAT activity, of the control ([8]; 0.2% (v/v) DMSO vs untreated): 1.7 fold
increase of SOD activity ([9]; 0.2% (v/v) DMSO vs untreated, not statistically significant): 10%

CC(=O)N[C@@H](CS)C(=O)O [NAC, N-acetyl-L-cysteine, reference compound]
attenuation of cellular ROS level (references) [10]: did not show apparent inhibition
reduction of GSSG (references) ([6]; EGCG 25 μM, NAC 5 mM, 48 h): had no effect
increase in GSH/GSSG ratio (references) ([6]; NAC 5 mM, EGCG 25 μM, 48 h): no change
induction of total GSH (references) ([6]; NAC 5 mM, EGCG 25 μM, 48 h): did not show any effect
attenuation of GPx activity (references) ([7]; EGCG 25 μM, NAC 5 mM): did not show much effect
suppression of CAT activity (references) ([8]; EGCG, NAC (FIG. 4c)): 35%
effect on SOD activity ([9]; HSC T6 cells, 48 h): did not show much effect
effect on GST activity (references) [11]: did not have much affect
